# Test results: ChEMBL document CHEMBL4622890, “Antiproliferative Flavanoid Dimers Isolated from Brazilian Red Propolis” (J Nat Prod, 2020)
# What was measured:
# [1] = Antioxidant activity assessed as hydroxyl radical scavenging activity after 5 mins by H2DCF-DA dye based fluorescence spectrophotometric analysis; format: functional
# [2] = Chemopreventive index, ratio of IC50 for mouse Hepa-1c1c7 cells to drug level required to double NADPH:quinone reductase activity in mouse Hepa-1c1c7 cells
# HT-29 = test: Cytotoxicity against human HT-29 cells after 3 days by sulforhodamine B assay; format: functional, cell-based; conditions: HT-29, 72 h
# Transcription factor p65 = Transcription factor p65 (Homo sapiens, UniProt Q04206); test: Inhibition of NF-kappaB p65 in human HeLa cells nuclear extract by chemiluminescent assay; format: cell-free
# Transcription factor p65, sequence (Q04206 whole entry): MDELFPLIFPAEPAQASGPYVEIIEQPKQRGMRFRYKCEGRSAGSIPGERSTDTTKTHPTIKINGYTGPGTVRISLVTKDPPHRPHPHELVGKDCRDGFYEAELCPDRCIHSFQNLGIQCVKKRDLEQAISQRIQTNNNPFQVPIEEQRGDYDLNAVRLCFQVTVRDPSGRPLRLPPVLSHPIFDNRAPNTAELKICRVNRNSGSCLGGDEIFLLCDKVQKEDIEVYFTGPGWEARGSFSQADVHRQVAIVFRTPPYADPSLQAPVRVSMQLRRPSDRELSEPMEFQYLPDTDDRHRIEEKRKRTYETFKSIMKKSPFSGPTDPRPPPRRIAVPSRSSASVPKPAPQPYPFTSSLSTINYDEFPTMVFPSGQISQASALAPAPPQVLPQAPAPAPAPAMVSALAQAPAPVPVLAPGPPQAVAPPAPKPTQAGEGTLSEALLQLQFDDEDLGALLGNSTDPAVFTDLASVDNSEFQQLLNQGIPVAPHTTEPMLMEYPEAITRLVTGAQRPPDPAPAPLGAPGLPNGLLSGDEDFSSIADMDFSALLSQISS
# PC-3 = test: Cytotoxicity against human PC3 cells after 48 hrs by MTT assay; format: functional; conditions: PC-3, 48 h
# NCI/ADR-RES = test: Cytotoxicity against human NCI-ADR-RES cells after 48 hrs by MTT assay; format: functional
# U-251 = test: Cytotoxicity against human U251 cells after 48 hrs by MTT assay; format: functional; conditions: U-251, 48 h
# MCF7 = test: Cytotoxicity against human MCF7 cells after 48 hrs by MTT assay; format: functional; conditions: MCF7, 48 h
Compound,ED50 [1],Ratio [2],IC50 (HT-29),TGI (PC-3),TGI (NCI/ADR-RES),TGI (U-251),TGI (MCF7),other results
C=CC(C)(C)c1cc(C(=O)c2c(-c3cc(-c4cc5cc(C(C)(C)C=C)c(O)cc5oc4=O)c(O)cc3O)oc3cc(O)ccc23)c(O)cc1O,0.7 to 0.9 µM,1.3 - 7.4,1.6 to 4.5 µM,–,–,–,–,IC50 (Transcription factor p65): 0.006 µM
COc1cccc2c1C(=O)c1c(O)c3c(c(O)c1C2=O)C[C@@](O)(C(=O)CO)C[C@@H]3O[C@H]1C[C@H](N)[C@H](O)[C@H](C)O1 [DOXORUBICIN],–,–,–,4 µM,16.1 µM,6.9 µM,12.2 µM,–
COc1ccc2c(c1)OCC(c1cc(-c3oc4cc(OC)ccc4c3Cc3ccc(O)cc3O)c(O)cc1O)C2 (stereo not drawn),–,–,–,21.9 µM,29.9 µM,25 µM,34.6 µM,LC50 (PC-3): ≥ 10 µM
C=CC(C)(C)c1cc(-c2oc3cc(O)ccc3c2Cc2cc(-c3cc4cc(C(C)(C)C=C)c(O)cc4oc3=O)c(O)cc2O)c(O)cc1O,0.7 to 0.9 µM,1.3 - 7.4,1.6 to 4.5 µM,–,–,–,–,–
C[S+]([O-])CCCCN=C=S (stereo not drawn) [SULFORAPHANE],–,21.4,–,–,–,–,–,–
COc1ccc2c(c1)OCC(c1cc(Cc3c(-c4ccc(O)cc4O)oc4cc(OC)ccc34)c(O)cc1O)C2 (stereo not drawn),–,–,–,19.1 µM,19.1 µM,17.2 µM,27 µM,LC50 (PC-3): ≥ 10 µM; LC50 (concentration killing 50% of cells) (NCI/ADR-RES): ≥ 10 µM; CC50 (U-251; read-out: LC50 (the source's name)): ≥ 10 µM; LC50 (lethal concentration 50%) (MCF7): ≥ 10 µM
C=CC(C)(C)c1cc2c(cc1O)OC[C@H](c1cc(-c3oc4cc(O)ccc4c3C(=O)c3cc(C(C)(C)C=C)c(O)cc3O)c(O)cc1O)C2,0.7 to 0.9 µM,1.3 - 7.4,1.6 to 4.5 µM,–,–,–,–,–
